For 4 compounds, AC50, IC50 and EC50 results are on record in ChEMBL document CHEMBL1201862, “PubChem BioAssay data set” (2004).

The source made the active and inactive calls.

One experiment relates to INS1. Kind of experiment: beta cell apoptosis inhibitors, cytokine rescue, dose response, luminescence, retest (AID 449756).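 Also: cell death triggered by IL-1 beta plus TNF-alpha plus IFN-gamma mixture; protective hits raise ATP signal compared with cytokine alone wells.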 The format is functional, cell-based. As to conditions: Rattus norvegicus.
In experiment [1] the target is T1, C-C chemokine receptor type 6 (Homo sapiens, UniProt P51684).
T1 sequence (P51684 whole entry): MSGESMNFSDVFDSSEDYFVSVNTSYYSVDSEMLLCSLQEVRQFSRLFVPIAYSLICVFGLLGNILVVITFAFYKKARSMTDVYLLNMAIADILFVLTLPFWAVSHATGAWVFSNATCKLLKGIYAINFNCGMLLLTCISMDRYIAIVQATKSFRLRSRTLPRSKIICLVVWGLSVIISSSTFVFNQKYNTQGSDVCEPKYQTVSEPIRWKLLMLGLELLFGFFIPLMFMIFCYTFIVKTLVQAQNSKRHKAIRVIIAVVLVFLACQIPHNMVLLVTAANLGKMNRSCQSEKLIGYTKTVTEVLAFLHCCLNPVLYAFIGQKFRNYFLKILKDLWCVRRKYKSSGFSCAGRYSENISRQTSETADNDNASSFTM
Kind of experiment: CCR6 receptor antagonists, dose response, cell-based, luminescent beta-arrestin readout (AID 504728). The format is functional.

The nature of experiment [2]: cytotoxicity toward NIH3T3 fibroblasts, dose response, counter-screen, cell-based, ATP luminescence, mouse fibroblasts (AID 2010).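 Also: cells exposed to compound for about 90 hours before reading.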 The format is functional. (A counterscreen serves to expose hits that act by an unwanted route or on another target.)
Experiment [3] can be described thus: inhibitors of intracellular T. cruzi replication, confirmation, NIH3T3 host cells, beta-gal luminescence (AID 2044).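 Also: intracellular parasites grown in NIH/3T3 mouse fibroblasts as host cells; luminescent beta-galactosidase reporter signal from transgenic T. cruzi replicating inside host cells; inhibitors lower the luminescence signal.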 Type of experiment: functional, cell-based.
The target of another experiment is T2, Hexokinase-1 (Homo sapiens, UniProt P19367).
T2 sequence (P19367 whole entry): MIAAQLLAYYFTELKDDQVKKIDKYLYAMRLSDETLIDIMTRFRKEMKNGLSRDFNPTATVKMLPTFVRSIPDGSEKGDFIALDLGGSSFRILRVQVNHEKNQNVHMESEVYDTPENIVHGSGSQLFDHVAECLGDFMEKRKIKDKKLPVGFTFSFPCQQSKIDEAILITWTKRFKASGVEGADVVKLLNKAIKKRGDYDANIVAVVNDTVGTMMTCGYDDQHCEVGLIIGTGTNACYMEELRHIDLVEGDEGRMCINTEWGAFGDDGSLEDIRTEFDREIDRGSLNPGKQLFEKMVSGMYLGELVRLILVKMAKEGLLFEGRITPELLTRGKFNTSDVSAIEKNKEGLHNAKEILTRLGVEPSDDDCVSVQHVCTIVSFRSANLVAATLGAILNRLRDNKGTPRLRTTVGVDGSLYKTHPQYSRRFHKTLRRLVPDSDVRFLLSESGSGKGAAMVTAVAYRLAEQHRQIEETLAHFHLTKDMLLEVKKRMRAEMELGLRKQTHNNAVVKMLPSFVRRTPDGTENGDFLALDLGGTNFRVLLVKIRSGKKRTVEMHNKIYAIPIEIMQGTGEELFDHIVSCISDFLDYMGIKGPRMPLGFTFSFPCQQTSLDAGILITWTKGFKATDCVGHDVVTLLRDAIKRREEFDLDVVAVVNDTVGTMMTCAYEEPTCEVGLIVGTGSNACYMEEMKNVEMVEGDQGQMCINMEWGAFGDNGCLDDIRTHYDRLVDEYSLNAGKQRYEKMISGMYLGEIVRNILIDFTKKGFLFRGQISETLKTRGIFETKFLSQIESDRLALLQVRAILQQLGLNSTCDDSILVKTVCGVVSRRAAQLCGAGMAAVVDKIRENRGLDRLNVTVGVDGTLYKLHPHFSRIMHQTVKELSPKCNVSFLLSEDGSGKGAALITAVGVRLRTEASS
The experiment in a line: SAR analysis of small molecule inhibitors of hexokinase domain containing I (HKDC1) in the hexokinase 1 selectivity assay. [Related pubchem assays (depositor defined):AID493160, AID493190]. The format is functional.

Experiment [4] addresses Cystic fibrosis transmembrane conductance regulator/Golgi-associated PDZ and coiled-coil motif-containing protein (Homo sapiens, UniProt P13569+Q9HD26). Kind of experiment: CAL PDZ peptide-binding inhibitors, dose response, biochemical, fluorescence polarization, Cerulean-tagged CAL PDZ, cherry-picks (AID 504773). On the technique in general: Fluorescence polarisation rises when a labelled molecule tumbles more slowly, as on binding a larger partner.

The nature of experiment [5]: CAL PDZ domain peptide-binding inhibitors, dose response, biochemical, fluorescence polarization, untagged CAL PDZ, cherry-pick (AID 602267). Type of experiment: functional.
The target of experiment [6] is T3, Heat shock factor protein 1 (Mus musculus, UniProt P38532).
T3 sequence (P38532 whole entry): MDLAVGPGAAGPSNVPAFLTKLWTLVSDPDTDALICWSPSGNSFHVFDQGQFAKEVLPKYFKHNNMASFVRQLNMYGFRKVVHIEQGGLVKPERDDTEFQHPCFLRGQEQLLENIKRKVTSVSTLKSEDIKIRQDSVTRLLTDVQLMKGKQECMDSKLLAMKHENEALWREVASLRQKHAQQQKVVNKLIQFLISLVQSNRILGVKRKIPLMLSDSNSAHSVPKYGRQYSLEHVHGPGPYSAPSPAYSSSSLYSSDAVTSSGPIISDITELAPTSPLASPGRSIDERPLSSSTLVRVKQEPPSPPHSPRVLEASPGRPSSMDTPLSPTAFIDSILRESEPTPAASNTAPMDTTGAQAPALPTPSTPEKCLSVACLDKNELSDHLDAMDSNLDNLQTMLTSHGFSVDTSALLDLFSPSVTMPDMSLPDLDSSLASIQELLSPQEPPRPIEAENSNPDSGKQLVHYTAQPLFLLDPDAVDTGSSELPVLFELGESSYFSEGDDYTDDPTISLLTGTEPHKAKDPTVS
The experiment in a line: inhibition of MG132-induced HSE-luciferase signal, confirmation, cell-based, NIH3T3, luminescence, dose retest (AID 2382).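 Also: NIH3T3 fibroblasts with HSF1-driven luciferase reporter stressed by proteasome inhibitor MG132; luminescence from HSF1-driven luciferase expression after 8 hours of MG132 stress.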 The format is functional.

In another experiment the test system is Streptococcus. Kind of experiment: Group A Streptococcus viability loss, dose response, counter-screen for streptokinase expression inhibitor project, luminescence, BacTiterGlo (AID 1915).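 Also: potency for reduction of bacterial viability or growth.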 Type of experiment: functional, organism-based.

Chain of Cystic fibrosis transmembrane conductance regulator/Golgi-associated PDZ and coiled-coil motif-containing protein (P13569 whole entry, other chains not shown): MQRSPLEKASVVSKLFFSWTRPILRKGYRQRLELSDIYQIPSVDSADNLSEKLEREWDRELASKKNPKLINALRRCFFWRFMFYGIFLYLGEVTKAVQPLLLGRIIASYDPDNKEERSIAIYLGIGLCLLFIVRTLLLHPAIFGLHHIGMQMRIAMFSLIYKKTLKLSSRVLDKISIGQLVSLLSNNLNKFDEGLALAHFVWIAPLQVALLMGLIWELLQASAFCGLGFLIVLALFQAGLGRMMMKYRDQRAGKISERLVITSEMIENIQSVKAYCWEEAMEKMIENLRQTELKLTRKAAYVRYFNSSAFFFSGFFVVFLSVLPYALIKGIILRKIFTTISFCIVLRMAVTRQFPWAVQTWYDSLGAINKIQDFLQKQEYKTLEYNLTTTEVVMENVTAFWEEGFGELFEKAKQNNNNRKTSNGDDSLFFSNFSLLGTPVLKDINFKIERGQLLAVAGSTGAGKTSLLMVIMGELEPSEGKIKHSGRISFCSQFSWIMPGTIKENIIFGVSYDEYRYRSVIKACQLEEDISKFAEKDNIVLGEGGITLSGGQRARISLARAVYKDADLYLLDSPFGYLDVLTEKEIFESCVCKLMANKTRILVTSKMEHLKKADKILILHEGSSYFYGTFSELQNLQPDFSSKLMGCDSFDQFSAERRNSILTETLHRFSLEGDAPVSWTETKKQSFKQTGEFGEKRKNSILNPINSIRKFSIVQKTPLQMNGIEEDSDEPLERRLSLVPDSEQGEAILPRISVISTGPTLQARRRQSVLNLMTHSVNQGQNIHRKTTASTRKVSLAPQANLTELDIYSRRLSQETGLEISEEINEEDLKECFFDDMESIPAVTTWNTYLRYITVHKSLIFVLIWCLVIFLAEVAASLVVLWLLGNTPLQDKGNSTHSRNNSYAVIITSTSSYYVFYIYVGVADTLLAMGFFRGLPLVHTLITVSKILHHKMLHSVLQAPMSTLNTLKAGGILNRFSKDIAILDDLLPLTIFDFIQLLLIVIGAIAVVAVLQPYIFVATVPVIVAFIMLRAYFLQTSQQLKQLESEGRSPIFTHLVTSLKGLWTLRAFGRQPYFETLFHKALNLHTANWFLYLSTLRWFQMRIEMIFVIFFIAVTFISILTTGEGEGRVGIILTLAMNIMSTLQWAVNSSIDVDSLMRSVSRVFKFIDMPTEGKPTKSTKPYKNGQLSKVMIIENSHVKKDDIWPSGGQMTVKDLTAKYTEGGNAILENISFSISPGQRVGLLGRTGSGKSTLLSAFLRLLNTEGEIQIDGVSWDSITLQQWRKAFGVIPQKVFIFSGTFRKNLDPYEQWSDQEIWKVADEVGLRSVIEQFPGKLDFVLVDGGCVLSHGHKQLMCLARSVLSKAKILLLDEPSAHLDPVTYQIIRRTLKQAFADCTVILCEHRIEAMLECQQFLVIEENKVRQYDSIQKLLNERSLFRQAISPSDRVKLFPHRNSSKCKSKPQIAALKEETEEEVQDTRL

On to `COC(=O)c1ccccc1NC1=C/C(=N\S(=O)(=O)c2ccc(C(=O)O)cc2)c2ccccc2C1=O`, for which the half-maximal activity concentration (AC50) (as a rule, the concentration at which the activity in the assay is half-maximal) with INS1 was 3.34 µM (active). Besides, the IC50 (in general, the concentration that gives 50% inhibition) in [1] was > 66.6 µM (inactive).
For `NC(=O)C1CCN(C2=C(Cl)C(=O)c3ccccc3C2=O)CC1`, the EC50 (in general, the concentration at which the effect is half-maximal) is 3.29 µM (active) in experiment [2] and 2.18 µM (active) in experiment [3].
`O=c1c2ccccc2nc(/C=C/c2cccnc2)n1Cc1ccccc1`: the IC50 at Hexokinase-1 was > 80 µM (inactive). Further, the results for the concentration at half-maximal activity (AC50) in experiment [4] and in experiment [5] were 23.5 µM (active) and 91.1 µM (active), respectively.
Regarding `O=C(O)c1ccc(N/N=C/c2ccc(OC(=O)c3ccccc3Cl)cc2)cc1`, the EC50 in [6] is 0.167 µM (active); in the experiment on Streptococcus, 131 µM (active).
